In the assay the test system is RPMI-8226 cells. The assay can be described thus: RPMI-8226 xenograft model, tumor volume. It is filed as in vivo, Mice. The conditions noted are these: ZN-c3 60 mg/kg p.o. qd×21, single agent, RPMI-8226 subcutaneous xenograft. How it is done:
Mice were inoculated with RPMI-8226 cells subcutaneously on the right flank with the single cell suspension of 95% viable tumor cells ([…]) in 100 μL RPMI 1640 Matrigel mixture (1:1 ratio) without serum for the tumor development. The treatment was started when the mean tumor size reached approximately 200 mm^3, with individual tumor size ranging from 185-235 mm^3. Animals were randomly distributed into treatment groups of 10 animals each and dosed with vehicle and indicated compounds at the indicated dosage and frequency shown in FIG. 2 and Table 1. In FIG. 2, the bottom line with circles is ZN-c3 60 mg/kg p.o. qd×21+Anti-CD47 20 mg/kg ip BIW×3. Anti-CD47 was obtained from Bio X Cell (clone B6.H12, catalog number BE0019-1). Tumor volumes were evaluated twice per week to calculate tumor volume over time, and the mice were weighed twice per week as a surrogate for signs of toxicity. Tumor growth inhibition (TGI) was calculated using the following equation TGI=(1−(Td−T0)/(Cd−C0))×100%. Td and Cd are the mean tumor volumes of the treated and control animals, and T0 and C0 are the mean tumor volumes of the treated and control animals at the start of the experiment. The tumor regression was defined as individual tumor volume (TV) decrease (terminal TV compared to initial TV). The percent tumor regression was calculated using the formula: (1−(Td/T0))×100%.

Results on one compound are retold here after US20240261295A1, “COMBINATIONS OF WEE1 INHIBITORS AND ANTI-CD47 ANTIBODIES” (Recurium IP Holdings, LLC, priority 2021, published 2024).

Take `C=CCn1c(=O)c2cnc(Nc3ccc(N4CCN(C)CC4)cc3)nc2n1-c1ccc2c(n1)[C@@](O)(CC)CC2` [ZN-c3]: the “TGI % (Day 21)” value is given as 61%.
